The first assay has as its target GCN2 (Homo sapiens, UniProt Q9P2K8). The assay can be described thus: TR-FRET biochemical assay for inhibition of GCN2 (Example 106, for Example 1-4BB). The conditions noted are these: Table 8.
GCN2, sequence (Q9P2K8 whole entry): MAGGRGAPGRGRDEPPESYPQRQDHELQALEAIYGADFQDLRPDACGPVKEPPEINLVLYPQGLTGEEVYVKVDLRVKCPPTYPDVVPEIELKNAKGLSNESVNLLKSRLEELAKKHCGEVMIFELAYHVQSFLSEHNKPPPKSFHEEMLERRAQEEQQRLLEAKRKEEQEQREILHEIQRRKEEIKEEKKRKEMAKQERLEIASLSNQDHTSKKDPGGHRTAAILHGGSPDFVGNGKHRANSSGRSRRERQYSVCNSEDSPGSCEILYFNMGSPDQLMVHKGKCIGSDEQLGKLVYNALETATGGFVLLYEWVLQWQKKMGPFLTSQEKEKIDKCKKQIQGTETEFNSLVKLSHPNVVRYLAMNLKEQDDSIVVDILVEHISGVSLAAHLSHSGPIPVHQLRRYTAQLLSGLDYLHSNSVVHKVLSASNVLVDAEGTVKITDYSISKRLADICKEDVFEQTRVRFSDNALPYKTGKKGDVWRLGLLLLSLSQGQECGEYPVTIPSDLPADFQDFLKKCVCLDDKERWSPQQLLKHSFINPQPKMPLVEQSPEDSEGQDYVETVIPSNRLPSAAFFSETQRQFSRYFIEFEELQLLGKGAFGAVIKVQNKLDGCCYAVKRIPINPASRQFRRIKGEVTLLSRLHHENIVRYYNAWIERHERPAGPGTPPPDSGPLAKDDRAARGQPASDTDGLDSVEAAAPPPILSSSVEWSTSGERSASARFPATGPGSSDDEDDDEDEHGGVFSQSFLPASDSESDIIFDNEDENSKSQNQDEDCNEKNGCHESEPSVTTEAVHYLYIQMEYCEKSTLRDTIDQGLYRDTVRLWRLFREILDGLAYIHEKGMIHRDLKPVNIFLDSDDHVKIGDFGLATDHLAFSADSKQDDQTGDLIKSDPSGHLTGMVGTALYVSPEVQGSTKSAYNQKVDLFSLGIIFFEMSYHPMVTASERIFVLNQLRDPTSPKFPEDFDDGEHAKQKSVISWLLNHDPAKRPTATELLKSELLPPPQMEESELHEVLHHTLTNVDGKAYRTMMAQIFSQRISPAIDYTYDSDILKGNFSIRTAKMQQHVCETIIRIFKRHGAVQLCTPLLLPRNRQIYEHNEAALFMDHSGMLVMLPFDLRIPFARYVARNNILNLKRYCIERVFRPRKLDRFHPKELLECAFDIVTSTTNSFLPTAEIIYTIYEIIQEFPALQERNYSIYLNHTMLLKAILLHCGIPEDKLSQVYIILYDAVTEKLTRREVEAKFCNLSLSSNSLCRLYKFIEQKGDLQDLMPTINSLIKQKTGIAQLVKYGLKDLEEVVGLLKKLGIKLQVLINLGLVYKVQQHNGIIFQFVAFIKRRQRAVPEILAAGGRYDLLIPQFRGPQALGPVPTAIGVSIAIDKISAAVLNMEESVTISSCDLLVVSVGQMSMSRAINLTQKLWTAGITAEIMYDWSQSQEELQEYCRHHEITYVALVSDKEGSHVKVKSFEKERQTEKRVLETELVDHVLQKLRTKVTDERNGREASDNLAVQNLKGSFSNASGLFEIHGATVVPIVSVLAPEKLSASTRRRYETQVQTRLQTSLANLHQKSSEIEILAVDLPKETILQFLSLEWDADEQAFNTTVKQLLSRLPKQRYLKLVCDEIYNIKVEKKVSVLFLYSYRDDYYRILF
For orientation: IC50 means the concentration that gives 50% inhibition. With `O=S(=O)(Nc1ccc(F)c(-c2ccc3c(-c4ncc[nH]4)n[nH]c3c2F)c1F)c1cc(Cl)ccc1F` [Example 2BD, 5-chloro-N-(2,4-difluoro-3-(7-fluoro-3-(1H-imidazol-2-yl)-1H-indazol-6-yl)phenyl)-2-fluorobenzenesulfonamide], the IC50 is under 500 nM.
Same read-out and setting: the value for `O=S(=O)(Nc1ccc(F)c(-c2ccc3c(-c4ncc[nH]4)n[nH]c3c2F)c1F)c1cncc(Cl)c1` [Example 2CE] was under 500 nM; that for `O=S(=O)(Nc1ccc(F)c(-c2ccc3c(-c4ncc[nH]4)n[nH]c3c2F)c1F)c1ccccc1F` [Example 2BT, N-(2,4-difluoro-3-(7-fluoro-3-(1H-imidazol-2-yl)-1H-indazol-6-yl)phenyl)-2-fluorobenzenesulfonamide] was under 500 nM.
On the same count and under the same terms, in the case of `COc1ncc(Cl)cc1S(=O)(=O)Nc1ncc(F)c(-c2ccc3c(-c4ncc[nH]4)n[nH]c3c2F)c1F` [Example 6, 5-Chloro-N-(3,5-difluoro-4-(7-fluoro-3-(1H-imidazol-2-yl)-1H-indazol-6-yl)pyridin-2-yl)-2-methoxypyridine-3-sulfonamide] it was under 500 nM.

Staying with this assay, now noted: Table 9.
Compound `COc1ncc(Cl)cc1S(=O)(=O)Nc1ccc(F)c(-c2ccc3c(-c4cnn[nH]4)n[nH]c3c2F)c1F` [Example 4AN] showed an IC50 of under 500 nM.
The same measure, in the same setting: the value for `O=C(NCCCO)c1n[nH]c2c(F)c(-c3c(F)ccc(NS(=O)(=O)c4cc(F)cc5c4CCC5O)c3F)ccc12` (centres unmarked) [Example 4T] was under 500 nM.
On the same count and under the same terms, the value for `COc1ncc(F)cc1S(=O)(=O)Nc1cccc(-c2ccc3c(C(=O)NCC[C@H](O)CO)n[nH]c3c2F)c1F` [Example 3BG, 6-(2-fluoro-3-((5-fluoro-2-methoxypyridine)-3-sulfonamido)phenyl)-N-((S)-3,4-dihydroxybutyl)-7-fluoro-1H-indazole-3-carboxamide] was under 500 nM.
For `COc1ncc(F)cc1S(=O)(=O)Nc1ccc(F)c(-c2ccc3c(-c4n[nH]c(=O)[nH]4)n[nH]c3c2F)c1F` [Example 3CW, N-(2,4-difluoro-3-(7-fluoro-3-(5-oxo-4,5-dihydro-1H-1,2,4-triazol-3-yl)-1H-indazol-6-yl)phenyl)-5-fluoro-2-methoxypyridine-3-sulfonamide], the IC50 was under 500 nM.
The same measure, in the same setting: the value for `COc1ncc(F)cc1S(=O)(=O)Nc1cc(C#N)cc(-c2ccc3c(-c4ncc[nH]4)n[nH]c3c2F)c1F` [Example 3CB, N-(5-cyano-2-fluoro-3-(7-fluoro-3-(1H-imidazol-2-yl)-1H-indazol-6-yl)phenyl)-5-fluoro-2-methoxypyridine-3-sulfonamide] was over 10000 nM; that for `NC(=O)c1n[nH]c2c(F)c(-c3c(F)ccc(NS(=O)(=O)c4cc(F)cc5c4CCC5=O)c3F)ccc12` [Example 4S] was under 500 nM; that for `COc1ncc(Cl)cc1S(=O)(=O)Nc1ccc(F)c(-c2ccc3c(C(=O)NC4COC4)n[nH]c3c2F)c1F` [Example 3B, 6-(3-((5-chloro-2-methoxy-pyridine)-3-sulfonamido)-2,6-difluorophenyl)-7-fluoro-N-(oxetan-3-yl)-1H-indazole-3-carboxamide] was 2500 to 10000 nM.
Same read-out and setting: in the case of `COc1ncc(F)cc1S(=O)(=O)Nc1cccc(-c2ccc3c(C(N)=O)n[nH]c3c2F)c1F` [Example 3AN, 7-fluoro-6-(2-fluoro-3-((5-fluoro-2-methoxypyridine)-3-sulfonamido)phenyl)-1H-indazole-3-carboxamide] it was under 500 nM.
Same read-out and setting: the value for `Cc1ncc(F)cc1S(=O)(=O)Nc1ccc(F)c(-c2ccc3c(C(=O)Nc4cnoc4)n[nH]c3c2F)c1F` [Example 3DQ, 6-(2,6-difluoro-3-((5-fluoro-2-methylpyridine)-3-sulfonamido)phenyl)-7-fluoro-N-(isoxazol-4-yl)-1H-indazole-3-carboxamide] was under 500 nM.
In turn, `COc1ncc(F)cc1S(=O)(=O)Nc1ccc(F)c(-c2ccc3c(C(=O)NCCCN(C)C)n[nH]c3c2F)c1F` [Example 3U, 6-(2,6-difluoro-3-((5-fluoro-2-methoxypyridine)-3-sulfonamido)phenyl)-N-(3-(dimethylamino)propyl)-7-fluoro-1H-indazole-3-carboxamide] returned a half-inhibitory concentration (IC50) of under 500 nM.

The values are drawn from US20220388964A1 (HiberCell, Inc., priority 2019, published 2022).
